{"source": "patent US7118885B2", "about": "“Nucleic acid encoding vitamin D receptor related polypeptide” (Pfizer Inc., priority 1997, dated 2006)", "key": {"VDRRγ": {"biological_target": "T1, VDRRγ (Homo sapiens, UniProt O75469)", "T1 sequence (O75469 1-434)": "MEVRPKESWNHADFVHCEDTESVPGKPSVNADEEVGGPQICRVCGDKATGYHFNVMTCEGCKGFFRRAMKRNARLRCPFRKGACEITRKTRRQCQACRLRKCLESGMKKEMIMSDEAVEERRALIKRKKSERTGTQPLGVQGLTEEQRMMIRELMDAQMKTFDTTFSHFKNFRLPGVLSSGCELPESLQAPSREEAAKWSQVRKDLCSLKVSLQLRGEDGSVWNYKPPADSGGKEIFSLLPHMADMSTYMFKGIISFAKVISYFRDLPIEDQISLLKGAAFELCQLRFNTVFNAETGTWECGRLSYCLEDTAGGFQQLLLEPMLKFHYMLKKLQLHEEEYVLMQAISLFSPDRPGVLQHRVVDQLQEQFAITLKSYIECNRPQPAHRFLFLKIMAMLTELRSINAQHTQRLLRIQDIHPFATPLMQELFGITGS", "test": "VDRRγ reporter gene assay in transiently transfected Caco-2 (TC7) cells", "method": "For identifying activators or ligands for VDRRγ, a library of substances structurally biased towards different classes of activators and ligands for nuclear receptors were tested. The activation of VDRRγ was analyzed in a reporter gene assay in transiently Caco-2 (TC7) cells (Carriere et al, 1994)."}, "VDRRg": {"biological_target": "T2, VDRRg (Homo sapiens, UniProt O75469)", "T2 construct": "expressed in transfected cells", "T2 sequence (O75469 1-434)": "T1 sequence (O75469 1-434)", "test": "Similar reporter assays as used in WO 96/22390", "type": "cell-based", "details": "data not shown"}, "[1]": {"biological_target": "T3, GAL4-DBD/VDR-LBD fusion protein (Homo sapiens, UniProt P11473)", "T3 construct": "fusion proteins of the GAL4-DBD fused to the LBD of either the VDR or the VDRR; expressed in transfected cells; host or cells: CV-1 cells", "T3 sequence (P11473 127-423 limits assumed)": "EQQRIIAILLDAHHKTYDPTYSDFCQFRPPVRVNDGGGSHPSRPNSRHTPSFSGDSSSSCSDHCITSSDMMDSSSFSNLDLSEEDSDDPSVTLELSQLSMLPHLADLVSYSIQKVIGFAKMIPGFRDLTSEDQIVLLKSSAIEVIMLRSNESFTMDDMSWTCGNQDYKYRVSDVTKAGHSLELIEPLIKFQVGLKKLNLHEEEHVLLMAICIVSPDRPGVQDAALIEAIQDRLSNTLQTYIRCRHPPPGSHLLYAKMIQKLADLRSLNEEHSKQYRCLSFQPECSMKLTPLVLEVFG", "test": "Transient co-transfection of CV-1 cells, GAL4-DBD/VDR-LBD with GAL4-luciferase reporter", "type": "cell-based", "details": "vitamin D3 1 μM, 48 hours", "method": "(§1) Transient transfections were performed to analyze if vitamin D3 activate the VDRRγ polypeptide. To this end, transient co-tansfections of CV-1 cells were performed with expression plasmids encoding fusion proteins of the GAL4-DBD fused to the LBD of either the VDR or the VDRR together with a reporter-plasmid containing five GAL4 responsive elements upstream of the luciferase gene. After transfection, cells were treated with vehicle (DMSO) alone or with vitamin D3 for 48 hours followed by harvesting of the cells and measurement of the luciferase activity in cell extracts."}, "[2]": {"biological_target": "T4, GAL4-DBD/VDRRγ-LBD fusion protein (Homo sapiens, UniProt O75469)", "T4 construct": "fusion proteins of the GAL4-DBD fused to the LBD of either the VDR or the VDRR; expressed in transfected cells; host or cells: CV-1 cells", "T4 sequence (O75469 146-433 limits assumed)": "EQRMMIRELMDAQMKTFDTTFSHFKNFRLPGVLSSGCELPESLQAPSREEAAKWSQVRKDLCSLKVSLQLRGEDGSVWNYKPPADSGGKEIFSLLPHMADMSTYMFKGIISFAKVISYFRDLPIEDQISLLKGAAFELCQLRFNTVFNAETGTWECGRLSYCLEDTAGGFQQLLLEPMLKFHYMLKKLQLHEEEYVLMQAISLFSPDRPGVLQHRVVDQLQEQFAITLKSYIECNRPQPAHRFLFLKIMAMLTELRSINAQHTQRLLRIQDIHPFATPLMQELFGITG", "test": "Transient co-transfection of CV-1 cells, GAL4-DBD/VDRRγ-LBD with GAL4-luciferase reporter", "type": "cell-based", "details": "vitamin D3 1 μM, 48 hours", "method": "as §1"}}}
{"compound": "CC(=O)[C@H]1CC[C@H]2[C@@H]3CC[C@H]4CC(=O)CC[C@]4(C)[C@H]3CC[C@]12C", "note": "[5α-pregnane-3,20-dione]", "values": [{"measurement": "activation of VDRRγ (in words)", "setting": "VDRRγ; Caco-2 (TC7) cells, FIG. 10", "result": "did not activate"}]}
{"compound": "CC(=O)[C@H]1CC[C@H]2[C@@H]3CC[C@@H]4CC(=O)CC[C@]4(C)[C@H]3CC[C@]12C", "note": "[5β-pregnane-3,20-dione]", "values": [{"measurement": "activation of VDRRγ (in words)", "setting": "VDRRγ; Caco-2 (TC7) cells, FIG. 10", "result": "efficient activation"}]}
{"compound": "CC(=O)[C@H]1[C@H](C#N)C[C@H]2[C@@H]3CC=C4C[C@@H](O)CC[C@]4(C)[C@H]3CC[C@@]21C", "note": "[PCN, pregnenolone 16α-carbonitrile]", "values": [{"measurement": "activation of VDRRγ (in words)", "setting": "VDRRγ; Caco-2 cells, 10 μM, FIG. 11", "result": "not activated"}, {"measurement": "activation of human VDRRγ polypeptides (summary statement)", "setting": "VDRRγ; VDRRγ-1 and VDRRγ-2, no concentration given", "result": "not activated"}]}
{"compound": "CC#C[C@]1(O)CC[C@H]2[C@@H]3CCC4=CC(=O)CCC4=C3[C@@H](c3ccc(N(C)C)cc3)C[C@@]21C", "note": "[RU486]", "values": [{"measurement": "increase in VDRRγ mediated reporter gene activity", "setting": "VDRRγ", "result": "slight increase (two fold)"}]}
{"compound": "CCCCOC(=O)c1ccc(N)cc1", "note": "[butyl 4-NH2 Benzoate]", "values": [{"measurement": "activation of VDRRg", "setting": "VDRRg", "result": "did not activate"}]}
{"compound": "C=C1CC[C@H](O)C/C1=C/C=C1\\CCC[C@]2(C)[C@@H]([C@H](C)CCCC(C)C)CC[C@@H]12", "note": "[vitamin D3]", "values": [{"measurement": "transactivation of GAL4-DBD/VDR-LBD (luciferase activity)", "setting": "[1]", "result": "transactivate"}, {"measurement": "transactivation of GAL4-DBD/VDRRγ-LBD (luciferase activity)", "setting": "[2]", "result": "not"}]}
